# PubChem BioAssay (NCI)
#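 Cultured in 96-well plates, cells were exposed to test compound for 48 hours across five concentrations. Definition used: TGI = concentration required for complete inhibition of growth.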
# Assays:
# Test in all cases: NCI anticancer screen, dose series, 48 h
# 786-0 renal = system: 786-0 renal
# A498 renal = system: A498 renal
# A549 NSCLC = system: A549 NSCLC
# ACHN renal = system: ACHN renal
# CAKI-1 renal = system: CAKI-1 renal
# CCRF-CEM leukemia = system: CCRF-CEM leukemia
# COLO 205 colon = system: COLO 205 colon
# DLD-1 colon = system: DLD-1 colon
# DMS 114 small cell lung = system: DMS 114 small cell lung
# DMS 273 small cell lung = system: DMS 273 small cell lung
# EKVX NSCLC = system: EKVX NSCLC
# HCC-2998 colon = system: HCC-2998 colon
# HCT-116 colon = system: HCT-116 colon
# HL-60(TB) leukemia = system: HL-60(TB) leukemia
# HOP-62 NSCLC = system: HOP-62 NSCLC
# HT29 colon = system: HT29 colon
# IGROV1 ovarian = system: IGROV1 ovarian
# K-562 leukemia = system: K-562 leukemia
# KM12 colon = system: KM12 colon
# KM20L2 colon = system: KM20L2 colon
# LOX IMVI melanoma = system: LOX IMVI melanoma
# LXFL 529 NSCLC = system: LXFL 529 NSCLC
# M14 melanoma = system: M14 melanoma
# M19-MEL melanoma = system: M19-MEL melanoma
# MALME-3M melanoma = system: MALME-3M melanoma
# MOLT-4 leukemia = system: MOLT-4 leukemia
# NCI-H23 lung = system: NCI-H23 lung
# NCI-H460 lung = system: NCI-H460 lung
# NCI-H522 lung = system: NCI-H522 lung
# OVCAR-3 ovarian = system: OVCAR-3 ovarian
# OVCAR-4 ovarian = system: OVCAR-4 ovarian
# OVCAR-5 ovarian = system: OVCAR-5 ovarian
# OVCAR-8 ovarian = system: OVCAR-8 ovarian
# RPMI-8226 leukemia = system: RPMI-8226 leukemia
# RXF-631 renal = system: RXF-631 renal
# SF-268 CNS = system: SF-268 CNS
# SF-295 CNS = system: SF-295 CNS
# SF-539 CNS = system: SF-539 CNS
# SK-MEL-2 melanoma = system: SK-MEL-2 melanoma
# SK-MEL-28 melanoma = system: SK-MEL-28 melanoma
# SK-MEL-5 melanoma = system: SK-MEL-5 melanoma
# SK-OV-3 ovarian = system: SK-OV-3 ovarian
# SNB-19 CNS = system: SNB-19 CNS
# SNB-75 CNS = system: SNB-75 CNS
# SNB-78 CNS = system: SNB-78 CNS
# SW-620 colon = system: SW-620 colon
# TK-10 renal = system: TK-10 renal
# U251 CNS = system: U251 CNS
# UACC-257 melanoma = system: UACC-257 melanoma
# UACC-62 melanoma = system: UACC-62 melanoma
# UO-31 renal = system: UO-31 renal
# XF 498 CNS = system: XF 498 CNS
# HCT-15 colon = system: HCT-15 colon
# NCI-H226 lung = system: NCI-H226 lung
# RXF 393 renal = system: RXF 393 renal
# SN12C renal = system: SN12C renal
smiles,measurement,setting,value
COc1cc(C)c(C(=O)/C=C/c2cc(OC)c(O)c(OC)c2)cc1O,TGI,786-0 renal,39.7 µM
same,TGI,A498 renal,97.5 µM
same,TGI,A549 NSCLC,> 100 µM
same,TGI,ACHN renal,> 100 µM
same,TGI,CAKI-1 renal,> 100 µM
same,TGI,CCRF-CEM leukemia,62.7 µM
same,TGI,COLO 205 colon,> 100 µM
same,TGI,DLD-1 colon,35.1 µM
same,TGI,DMS 114 small cell lung,72.3 µM
same,TGI,DMS 273 small cell lung,70.1 µM
same,TGI,EKVX NSCLC,> 100 µM
same,TGI,HCC-2998 colon,30.5 µM
same,TGI,HCT-116 colon,27 µM
same,TGI,HL-60(TB) leukemia,64.8 µM
same,TGI,HOP-62 NSCLC,69.3 µM
same,TGI,HT29 colon,> 100 µM
same,TGI,IGROV1 ovarian,85 µM
same,TGI,K-562 leukemia,> 100 µM
same,TGI,KM12 colon,50 µM
same,TGI,KM20L2 colon,57.6 µM
same,TGI,LOX IMVI melanoma,> 100 µM
same,TGI,LXFL 529 NSCLC,40.3 µM
same,TGI,M14 melanoma,29.9 µM
same,TGI,M19-MEL melanoma,54 µM
same,TGI,MALME-3M melanoma,36.9 µM
same,TGI,MOLT-4 leukemia,> 100 µM
same,TGI,NCI-H23 lung,36.4 µM
same,TGI,NCI-H460 lung,> 100 µM
same,TGI,NCI-H522 lung,39.6 µM
same,TGI,OVCAR-3 ovarian,91.1 µM
same,TGI,OVCAR-4 ovarian,49.3 µM
same,TGI,OVCAR-5 ovarian,69.9 µM
same,TGI,OVCAR-8 ovarian,> 100 µM
same,TGI,RPMI-8226 leukemia,> 100 µM
same,TGI,RXF-631 renal,59.8 µM
same,TGI,SF-268 CNS,78.4 µM
same,TGI,SF-295 CNS,> 100 µM
same,TGI,SF-539 CNS,93.1 µM
same,TGI,SK-MEL-2 melanoma,38.8 µM
same,TGI,SK-MEL-28 melanoma,41.4 µM
same,TGI,SK-MEL-5 melanoma,33.6 µM
same,TGI,SK-OV-3 ovarian,85.1 µM
same,TGI,SNB-19 CNS,44.5 µM
same,TGI,SNB-75 CNS,> 100 µM
same,TGI,SNB-78 CNS,> 100 µM
same,TGI,SW-620 colon,70.8 µM
same,TGI,TK-10 renal,> 100 µM
same,TGI,U251 CNS,44.6 µM
same,TGI,UACC-257 melanoma,> 100 µM
same,TGI,UACC-62 melanoma,44.1 µM
same,TGI,UO-31 renal,57.5 µM
same,TGI,XF 498 CNS,30.7 µM
CC1=C(C(=O)Nc2ccccc2C)C(c2ccc(N(C)C)cc2)C(C(=O)Nc2ccccc2C)=C(C)N1,TGI,786-0 renal,> 100 µM
same,TGI,A498 renal,> 100 µM
same,TGI,A549 NSCLC,> 100 µM
same,TGI,ACHN renal,> 100 µM
same,TGI,CCRF-CEM leukemia,> 100 µM
same,TGI,COLO 205 colon,> 100 µM
same,TGI,DLD-1 colon,> 100 µM
same,TGI,DMS 114 small cell lung,> 100 µM
same,TGI,DMS 273 small cell lung,> 100 µM
same,TGI,EKVX NSCLC,> 100 µM
same,TGI,HCC-2998 colon,> 100 µM
same,TGI,HCT-116 colon,> 100 µM
same,TGI,HCT-15 colon,> 100 µM
same,TGI,HL-60(TB) leukemia,53.8 µM
same,TGI,HOP-62 NSCLC,> 100 µM
same,TGI,HT29 colon,> 100 µM
same,TGI,IGROV1 ovarian,> 100 µM
same,TGI,K-562 leukemia,> 100 µM
same,TGI,KM12 colon,> 100 µM
same,TGI,KM20L2 colon,> 100 µM
same,TGI,LOX IMVI melanoma,> 100 µM
same,TGI,M19-MEL melanoma,> 100 µM
same,TGI,MALME-3M melanoma,> 100 µM
same,TGI,MOLT-4 leukemia,> 100 µM
same,TGI,NCI-H226 lung,> 100 µM
same,TGI,NCI-H23 lung,> 100 µM
same,TGI,NCI-H460 lung,> 100 µM
same,TGI,NCI-H522 lung,> 100 µM
same,TGI,OVCAR-3 ovarian,> 100 µM
same,TGI,OVCAR-5 ovarian,> 100 µM
same,TGI,OVCAR-8 ovarian,> 100 µM
same,TGI,RPMI-8226 leukemia,> 100 µM
same,TGI,RXF 393 renal,> 100 µM
same,TGI,RXF-631 renal,> 100 µM
same,TGI,SF-268 CNS,> 100 µM
same,TGI,SF-295 CNS,> 100 µM
same,TGI,SF-539 CNS,> 100 µM
same,TGI,SK-MEL-2 melanoma,> 100 µM
same,TGI,SK-MEL-28 melanoma,> 100 µM
same,TGI,SK-MEL-5 melanoma,> 100 µM
same,TGI,SK-OV-3 ovarian,> 100 µM
same,TGI,SN12C renal,> 100 µM
same,TGI,SNB-19 CNS,> 100 µM
same,TGI,SW-620 colon,> 100 µM
same,TGI,TK-10 renal,> 100 µM
same,TGI,U251 CNS,> 100 µM
same,TGI,UACC-257 melanoma,> 100 µM
same,TGI,UACC-62 melanoma,> 100 µM
same,TGI,UO-31 renal,> 100 µM
same,TGI,XF 498 CNS,> 100 µM
